Data: a melting point compilation (Tetko et al.)

| SMILES | melting point [°C] |
| --- | --- |
| COC(=O)CCC(C)C1CCC2C3C(OC(C)=O)C(Br)C4CCCCC4(C)C3CCC12C (stereo unspecified) | 158 to 159 |
| O=C1C(C(O)c2ccc(Cl)cc2Cl)C(C(F)(F)F)=NN1c1ccccc1 (stereo unspecified) | 249 |
| CC(C)(C)C(=O)CC(=O)C(F)(F)C(F)(F)C(F)(F)F | 38 |
| O=C(O)c1cc(I)ccc1F | 163 |
| BrC1(c2ccccc2)c2ccccc2-c2ccccc21 | 97 |
| Cc1cc(O)c(C2CC3CCC2(C)C3(C)C)cc1C (stereo unspecified) | 95 |
| Fc1nc(F)c(Cl)c(F)c1Cl | 25 |
| O=C(O)c1ccc(Cl)nc1Cl | 148 |
| COC1OC(COC(C)=O)C(OC2OC(COC(C)=O)C(OC(C)=O)C(OC(C)=O)C2OC(C)=O)C(OC(C)=O)C1OC(C)=O (stereo unspecified) | 131 |
| CC1(C(=O)O)CCCC2(C)c3cc(O)ccc3CCC12 (stereo unspecified) | 194 |
| Clc1cc2oc3cc(Cl)c(Cl)c(Cl)c3c2cc1Cl | 225 |
| NC(=O)C1(C(=O)O)CC1 | 184 to 189 |
| FC(F)(F)c1cc(CCl)cc(C(F)(F)F)c1 | 31 |
| Nc1nn2c(C(F)(F)F)cc(-c3cccs3)nc2c1/N=N/c1ccc(F)cc1 | 220 |
| COc1cc(C(C)=O)cc(OC)c1O | 123 to 128 |
| C=C(C)C1CC=C(C(=O)O)CC1 (stereo unspecified) | 129 to 135 |
| c1ccc(-c2cccc(-c3ccccc3)c2)cc1 | 87 |
| Nc1n[nH]c(N)c1Cc1ccc2c(c1)OCO2 | 169 to 171 |
| CC1(C)OCC2OC3(C(=O)O)OC(C)(C)OC3C2O1 (stereo unspecified) | 92 |
| NCCOP(=O)(O)O | 242 |
| C[Si]1(C)O[Si](C)(C)O[Si](C)(C)O[Si](C)(C)O[Si](C)(C)O[Si](C)(C)O1 | -3 |
| CC(C)(C)C=O | 6 |

| SMILES | melting point [°C] |
| --- | --- |
| CC(C)CCNCCC(C)C | -44 |
| NC(=S)Nc1ccc(F)cc1 | 162 to 167 |
| O=C(O)C1(C(F)(F)F)CC1 | 88 |
| O=C(Nc1ccccc1)c1ccccc1I | 137 |
| O=C(O)C(=S)CC1CCCC(CC(=S)C(=O)O)C1 (stereo unspecified) | 85 |
| OCc1ccc(Br)cn1 | 59 to 60 |
| ClCC(Br)CBr (stereo unspecified) | 6 |
| Clc1ccc2c(c1)C(N1CCNCC1)=Nc1ccccc1O2 | 176 |
| CC(=O)OCC(OC(C)=O)C(OC(C)=O)C(OC(C)=O)C(OC(C)=O)C(OC(C)=O)OC(C)=O (stereo unspecified) | 119 |
| Brc1ccc(N(c2ccc(Br)cc2)c2ccc(Br)cc2)cc1 | 142 |
| N#CC1=C(N)n2nc(C(F)(F)F)nc2NC1c1ccco1 (stereo unspecified) | 260 |
| COC(C)(C)OC | -47 |
| COCC(C)OC(C)=O (stereo unspecified) | -87 |
| CC(C)CCCC(C)C1CCC2C3CC(Cl)C4(O)CC(=O)CCC4(C)C3CCC12C (stereo unspecified) | 214 |
| O=S(=O)(n1ccnc1)n1ccnc1 | 135 to 137 |
| N#Cc1ccc(C(F)(F)F)cc1[N+](=O)[O-] | 44 |
| Cc1cc(C)c2c(c1C)CC2=O | 98 |
| Cc1cc(Br)cc(Br)c1O | 58 |
| O=C(Oc1c(F)c(F)c(F)c(F)c1F)c1cncnc1 | 121 to 124 |
| Nc1ccc(-c2ccc(NNc3ccccc3)cc2)cc1 | 140 |
| Clc1ccc2c(Cl)ccnc2c1 | 93 |
| COC(=O)[C@H]1CC[C@H](C(=O)OC)CC1 | 67 to 70 |

| SMILES | melting point [°C] |
| --- | --- |
| CC(O)C(Cl)(Cl)Cl (stereo unspecified) | 50.5 |
| CC(CCC(=O)O)C1CCC2C3CCC4C(Br)C(=O)CCC4(C)C3CCC12C (stereo unspecified) | 190 |
| Nc1c(Br)cc(Cl)cc1Br | 93 to 95 |
| Brc1ccc2c(c1)Oc1cc(Br)ccc1O2 | 145 |
| OCc1ccc(N2CCCCC2)nc1 | 70 to 71 |
| O=c1[nH]ccc(=S)[nH]1 | 295 |
| CCCCOC(=O)c1ccccc1C(=O)O | 73.5 |
| CCOC(=O)c1sc(C2CCN(C(=O)OC(C)(C)C)CC2)nc1C | 47 |
| C#CCOc1c(Cl)cccc1Cl | 43.5 |
| CCc1cnc(C2=NC(C)(C(C)C)C(=O)N2)c(C(=O)O)c1 (stereo unspecified) | 171 |
| CC(C)CC(N)CC(=O)O (stereo unspecified) | 249 to 250 |
| CCC1(c2ccccc2)C(=O)NC(=O)N(C)C1=O (stereo unspecified) | 176 |
| CC(Oc1cc(Cl)c(Cl)cc1Cl)C(=O)O (stereo unspecified) | 182 |
| O=C(O)c1cc(Br)cs1 | 121 |
| NC(=O)CC1(CC(=O)O)CCCCC1 | 140 to 145 |
| OCC1OC(OCC2OC(O)C(O)C(O)C2O)C(O)C(O)C1O (stereo unspecified) | 86 |
| FC(Cl)CCl (stereo unspecified) | -60 |
| CC(C)(NC(=O)C(Br)C(C)(C)C)c1ccccc1 (stereo unspecified) | 180 |
| NC(Cc1ccc(F)cc1Cl)=NO | 146 to 147 |
| COc1ccc2cc1Oc1ccc(cc1)CC1c3cc(c(OC)cc3CCN1C)Oc1c(OC)c(OC)cc3c1C(C2)N(C)CC3 (stereo unspecified) | 218 |

The remaining lines, values ahead:

| melting point [°C] | SMILES |
| --- | --- |
| 137 | CN1CCN(C2=Nc3ccccc3Cc3ccccc32)CC1 |
| 209 to 214 | COc1ccc(-c2c(C(=O)O)sc(SC)c2C#N)cc1 |
| 68 | OC1(c2ccccc2)Cc2ccccc21 (stereo unspecified) |
| 290 to 292 | Cc1nc2scc(-c3ccccc3)c2c(=O)n1NC(=O)c1ccc(Cl)cc1Cl |
| 118 to 121 | O=C(O)CC[C@H](NC(=O)OCc1ccccc1)C(=O)O |
| 81 to 82 | CCOc1nc2ccccc2c(=O)n1CCO |
| 116 to 118 | N#CCc1nc(-c2ccc3c(c2)OCCO3)cs1 |
| 98 | O=Cc1ccc2[nH]ccc2c1 |
| 110 to 112 | CCOC(=O)Cc1c(C(=O)OCC)[nH]c(C)c1C(=O)OCc1ccccc1 |
| 172 to 174 | CC(=O)N1CCc2cc(S(=O)(=O)Cl)ccc21 |
| 61.5 | CCC(C)c1cc([N+](=O)[O-])cc([N+](=O)[O-])c1OC(=O)OC(C)C (stereo unspecified) |
| > 300 | O=[N+]([O-])c1ccc(-c2nnc3n2CN(c2ccccn2)CS3)cc1 |
| 77 to 80 | CC(C)(NC(=O)OCc1ccccc1)C(=O)O |
| 101 | NS(=O)(=O)c1ccc(SCCCCO)cc1 |
| 138 to 140 | O=c1c(Cl)c(SCc2ccccc2)cnn1-c1ccccc1 |
| -9 | CCCCCCC(=O)CCC |
| 385 | O=C1c2cccc([N+](=O)[O-])c2C(=O)c2cccc([N+](=O)[O-])c21 |
| 204 to 208 | CC(=O)NC1C(Oc2ccccc2[N+](=O)[O-])OC(CO)C(O)C1O (stereo unspecified) |
| 243 to 245 | C/C(=N/NC(N)=O)C(=O)Nc1ccc(Br)cc1 |
| 45.5 | C#CC(C)OC(=O)Nc1cccc(Cl)c1 (stereo unspecified) |
| 72 | O=C(Oc1ccccc1)c1cccnc1 |

| melting point [°C] | SMILES |
| --- | --- |
| 164 | CC(C)CC1=C/C(=C/c2ccc(-c3cccc([N+](=O)[O-])c3)o2)C(=O)O1 |
| 15.8 | COc1ccc(C(C)=O)c(OC)c1OC |
| 120 to 122 | CCOC(=O)c1cc(C)n(-c2cc(C)[nH]n2)n1 |
| 195 | O=C(NCCCBr)c1cc([N+](=O)[O-])cc([N+](=O)[O-])c1 |
| 86 to 87 | O=Cc1ccc(-c2ccc(C(F)(F)F)cc2Cl)o1 |
| 126 | COc1ccc(S(N)(=O)=O)cc1F |
| 128 to 133 | O=C(Oc1ccccc1)c1cc2ccccc2cc1O |
| 172 | O=C(Oc1ccc2ccccc2c1)c1cccc(S(=O)(=O)Oc2ccc3ccccc3c2)c1 |
| -1 | CCCCCCCCCN |
| 252 to 255 | N=C1c2ccccc2C(=O)N1c1n[nH]c2ncccc12 |
| -19 | C#CCCCCCCCCCC |
| 64 | Cc1cccc(CC(=O)O)c1 |
| 189 | O=C1CC(c2ccc([N+](=O)[O-])cc2)=NN1c1ccccc1 |
| 101 | O=C(C=Cc1ccccc1)NCCO |
| 86 to 88 | OCc1ccc(-c2ccccn2)s1 |
| 248 | Cc1cc(=O)oc2cc(OC3OC(CO)C(O)C(O)C3O)ccc12 (stereo unspecified) |
| 120 | O=C(CC(=O)c1ccccc1O)c1ccccc1 |
| -67.5 | CCCCCCC(=O)OCCCC |
| 195 | Cc1ccc(C)c2c1-c1nc3ccccc3nc1-2 |
| 104 to 107 | OCCOc1ccc(OCCO)cc1 |
| 139 | O=C(O)c1ccccc1N/N=C1/C(=O)N(c2ccccc2)N=C1C(F)(F)F |

| melting point [°C] | SMILES |
| --- | --- |
| 140 | CC(=O)/C(=N\Nc1ccc([N+](=O)[O-])cc1)C(=O)C(F)(F)F |
| 121 | NNC(=O)c1ccc(C(F)(F)F)cc1 |
| 60.5 | CCCCCCCCCCCCCCCCCC(=O)OCCO |
| 137 to 138 | NNC(=O)c1csc(-c2ccccc2)n1 |
| 280 | CC(C)(C)C(=O)Nc1ncccc1C(=O)O |
| 220 | Cc1ccc(-c2cc(N/N=C(/C(=O)c3cccs3)C(=O)C(F)(F)F)[nH]n2)cc1 |
| 169 to 170 | CCOC(=O)c1c(C)oc(NC(=O)Nc2ccc(Cl)cc2)c1C(=O)OCC |
| 143 | CCC(O)c1cc(C)ccc1O (stereo unspecified) |
| 119 | Cc1ccc(C(C)(C)C(=O)ON)cc1 |
| 82 to 86 | COc1ccc(C(N)CCO)cc1 (stereo unspecified) |
| 28.5 to 31.5 | CCCCCCCCCCCCOS(=O)(=O)c1ccc(C)cc1 |
| 126 | O=C1CCN2C(=O)c3ccccc3CC2C1 (stereo unspecified) |
| 169 | Cc1cccc(C)c1NC(=O)C=CC(=O)O |
| 149 | CCOC(=O)c1c(SC)nn(C(N)=S)c1N |
| 141 to 142 | CCOC(=O)c1cc2c(oc1=O)-c1ccc(OC)cc1CC2 |
| 177 to 179 | O=C(O)CN(CC(=O)O)c1ccccc1OCCOc1ccccc1N(CC(=O)O)CC(=O)O |
| 51 | O=C=Nc1csc(-c2ccc(C(F)(F)F)cc2)n1 |
| 65 to 66 | O=C=Nc1ccc(-n2cccc2)cc1 |
| 129 to 130 | NNC(=O)c1snnc1-c1ccccc1 |
| 241 to 243 | CSc1sc(C(=O)O)c(-c2ccc(Cl)cc2)c1C#N |
